Counter-ions that a name gives are not always drawn.
Tests used:
Type in all cases: in vivo, human
[1] = tested on: non-small cell lung cancer squamous cell carcinoma; assay: Case report, non-small cell lung cancer squamous cell carcinoma (Example 8)
Procedure: EML4-ALK fusion gene had no mutation, EGFR gene had no mutation by gene detection.
From Mar. 26, 2013 to Jun. 5, 2013, the patient was treated with cisplatin and gemcitabine chemotherapy for 4 cycles, and the best efficacy was SD. After the end of the chemotherapy, they were treated with the local radiotherapy of the lung for 1 cycle, during which the adverse reactions was light. From Sep. 9, 2013 to Oct. 6, 2013, the patient was treated with cisplatin and gemcitabine chemotherapy for 2 cycles. December 2013, disease was found progression by review of CT. From Mar. 24, 2014, the patient was treated with docetaxel chemotherapy for 1 cycle. […] On Dec. […] Double lungs had multiple pulmonary bullae, which changed little than before; 3. Double lungs had inflammation, the scope of which was smaller than before; 4. Left clavicle, mediastinal and right hilar had multiple lymph nodes, which were slightly larger than before. From Jan. 7, 2015 to Jan. […] On Mar. […] On Mar. 6, 2015, the patient was treated with oral Tiggio treatment. […] On Jun.
From Jun. 4, 2015, the patient received dihydrochloride of compound I capsule treatment that one cycle plan was 12 mg dose once, q.d., and continuous medication for 2 weeks, and then suspended medication for 1 week. On Jun.

[2] = tested on: left upper lobe lung adenocarcinoma (T4N3M1a, stage IV); assay: Case report, stage IV lung adenocarcinoma (Example 6); conditions: for sum of the diameter of two measurable target lesions: baseline 58 mm
Procedure: A retired person, smoking for 30 years (20 cigarettes/day), underwent thyroid adenoma resection 10 years ago. […] From Aug. 1, 2013 to Sep. […] From Dec. 26, 2013 to Jan. […] On Jan. […] On Feb.
From Feb. 28, 2014, the capsule of dihydrochloride of compound I was taken orally at 12 mg once daily with repeated treatment cycles (treatment given for consecutive two weeks followed by one week of rest is one treatment cycle).

[3] = tested on: non-small cell lung cancer; assay: Case report, non-small cell lung cancer, EGFR gene no mutation (Example 7)
Description: From Jun. […] From Oct. […] On Jan. […] From Jan. […] On Jul.

[4] = tested on: patients with lung adenocarcinoma; assay: Randomized, double-blind, placebo-controlled trial in lung adenocarcinoma patients (Example 4)
Description: (§1) In this paper, progression-free survival P25 refers to the time that 75% of the patients who participated in the disease had no progress in disease; Progressive survival P50 refers to the time that 50% of the patients who participated in the disease had no progress in disease; Progression-free survival P75 refers to the time that 25% of the patients who participated in the disease had no progress in disease; the progression-free survival was the mean value of the progression-free survival of the patient who participated in the results of statistics.
Randomized, double-blind, placebo-controlled trials were performed in patients with measurable lesions which were pathologically diagnosedas lung adenocarcinoma, who had received second-line or higher-line therapy, or those who were intolerable to the aforementioned treatment, and who had been treated with other cytotoxic drugs, radiotherapy or surgery for more than four weeks. In this study, efficacy of the capsules of dihydrochloride of compound I was initially evaluated against placebo in the treatment of patients with lung adenocarcinoma. The primary outcome of the evaluation was progression-free survival (PFS). 104 patients with lung adenocarcinoma enrolled in this study, whose age was between 18-70. Among them, 50 patients were randomized into placebo group and 54 patients randomized into dihydrochloride of compound I group.
(§2) The above-mentioned eligible lung adenocarcinoma patients were treated with dihydrochloride of compound I/placebo for clinical trials. They were administered 12 mg/0 mg of compound I/placebo individually once daily for consecutive two weeks followed by one-week rest from administration, namely the period of a cycle regimen was three weeks (21 days), those who were ineligible for continuous therapy or whose disease were progressive disease (PD) according to the reassessment were excluded from the medication.
(§3) Results: A total of 104 patients with lung adenocarcinoma were enrolled in the study, including 50 patients randomized into placebo group and 54 patients randomized into dihydrochloride of compound I group. 37 patients in placebo group and 30 patients in dihydrochloride of compound I group were involved in data statistics, the remaining patients who dropped out or excluded from the study or those were still in follow-up were not included in the statistics.

[5] = tested on: patients with non-small cell lung cancer; assay: Randomized, double-blind, placebo-controlled trial in non-small cell lung cancer patients (Example 3); conditions: for progression-free survival (PFS, month) Mean / progression-free survival (PFS, month) P25 / progression-free survival (PFS, month) P50 / progression-free survival (PFS, month) P75: 12 mg once daily, two weeks on, one week rest
Description: as §1
Randomized, double-blind, placebo-controlled trials were performed in patients with measurable lesions which were pathologically diagnosedas non-small cell lung cancer, who had received second-line or higher-line therapy, or those who were intolerable to aforementioned treatment, and who had been treated with other cytotoxic drugs, radiotherapy or surgery for more than four weeks. In this study, efficacy of the capsules of dihydrochloride of compound I was initially evaluated against placebo in the treatment of patients with non-small cell lung cancer. The primary outcome of the evaluation was progression-free survival (PFS). 117 patients with non-small cell lung cancer enrolled in this study, whose age was between 18-70. Among them, 57 patients were randomized into placebo group and 60 patients randomized into dihydrochloride of compound I group.
as §2, with “above-mentioned eligible non-small cell lung cancer” for “above-mentioned eligible lung adenocarcinoma”, “cell lung cancer patients were” for “eligible lung adenocarcinoma patients were”
as §3, with “117” for “104”, “with non-small cell” for “with”, “cancer” for “adenocarcinoma”, “57” for “50”, “60” for “54”, “43” for “37”

[6] = tested on: right lower lung adenocarcinoma (T4N2M1b, stage IV); assay: Case report, stage IV lung adenocarcinoma (Example 5); conditions: for sum of the longest diameter of the two measurable lesions: baseline 45.7 mm
Procedure: 3, 2013, the capsule of dihydrochloride of compound I was taken orally at 12 mg once daily with repeated treatment cycles (treatment given for consecutive two weeks followed by one week of rest is one treatment cycle). Treatment toxicities were assessed at 4-week follow-up, and the number of blood cells and blood chemistry were analyzed every two or three weeks, treatment response was assessed based on CT scan as well.

[7] = after three-week administration
[8] = lung adenocarcinoma, 12 mg once daily, two weeks on, one week rest
[9] = after ten treatment cycles (210 days)

## CC(=O)O[C@@]12CO[C@@H]1C[C@H](O)[C@@]1(C)C(=O)[C@H](O)C3=C(C)[C@@H](OC(=O)[C@H](O)[C@@H](NC(=O)OC(C)(C)C)c4ccccc4)C[C@@](O)([C@@H](OC(=O)c4ccccc4)[C@H]21)C3(C)C [docetaxel, reference compound]
[1]; in vivo
  adverse reactions after prior chemotherapy (medical history): bone marrow suppression, oral infection, pneumonia appeared

## gemcitabine/cisplatin [reference compound]
[2]; one treatment cycle each
  outcome of prior therapy (medical history): unsatisfactory

## COc1cc2c(Oc3ccc4[nH]c(C)cc4c3F)ccnc2cc1OCC1(N)CC1 [dihydrochloride of compound I, 1-[[[4-(4-fluoro-2-methyl-1H-indol-5-yl)oxy-6-methoxyquinolin-7-yl]oxy]methyl]cyclopropylamine dihydrochloride]
[1]; Jul. 15, 2015
  target lesion sum: 63 mm
[1]; Oct. 16, 2015
  target lesion sum: 56 mm
[1]; Sep. 8, 2015
  target lesion sum: 57 mm
[1]; after 1 cycle (Jun. 25, 2015)
  reduction of total target lesions versus baseline: 10 mm
  total target lesions: 66 mm
[1]; until application date
  tolerability of adverse reactions: could tolerate adverse reactions
[2]; 12 mg once daily orally
  tolerance: generally well tolerated
[2]; after 15-week administration
  lesion in anterior segment of left upper lobe lung, diameter: 10 mm
  lesion in mediastinal lymph node, diameter: 15 mm
  reduction of sum of target lesions: 56.9%
  sum of the diameter of two measurable target lesions: 25 mm
[2]; after nine-week administration
  lesion in anterior segment of left upper lobe lung, diameter: 10 mm
  lesion in mediastinal lymph node, diameter: 16 mm
  reduction of sum of target lesions: 55.2%
  sum of the diameter of two measurable target lesions: 26 mm
[2]; [7]
  reduction of sum of target lesions: 37.9%
  sum of the diameter of two measurable target lesions: 36 mm
[2]; after three-week administration, baseline 21 mm
  lesion in mediastinal lymph node, diameter: 18 mm
[2]; after three-week administration, baseline 37 mm
  lesion in anterior segment of left upper lobe lung, diameter: 18 mm
[2]; during treatment
  blood changes: not significant
  heart toxicity: no heart toxicity related to the drug
  progression of non-target lesions and new lesions: not observed
[2]; given for 279 days, 14th treatment cycle
  response and clinical performance: sustained response against tumor and good clinical performance
[2]; six weeks administration
  lesion in anterior segment of left upper lobe lung, diameter: 14 mm
  lesion in mediastinal lymph node, diameter: 15 mm
  reduction of sum of target lesions: 50%
  sum of the diameter of two measurable target lesions: 29 mm
[2]; twelve weeks administration
  lesion in anterior segment of left upper lobe lung, diameter: 10 mm
  lesion in mediastinal lymph node, diameter: 16 mm
  reduction of sum of target lesions: 55.2%
  sum of the diameter of two measurable target lesions: 26 mm
[3]; Aug. 20, 2015
  left temporal lobe nodules, head enhancement CT: slightly smaller than baseline
[3]; until application date
  tolerability of adverse reactions: could tolerate adverse reactions
[4]; [8]
  progression-free survival (PFS, month) Mean: 4.77 month
  progression-free survival (PFS, month) P25: 2.77 month
  progression-free survival (PFS, month) P50: 4.33 month
  progression-free survival (PFS, month) P75: 6.87 month
[4]; patients with lung adenocarcinoma
  effect on progression-free survival versus placebo: significantly prolong progression-free survival
[5]; age > 60
  progression-free survival (PFS, month) Mean: 5.84 month
  progression-free survival (PFS, month) P25: 2.83 month
  progression-free survival (PFS, month) P50: 6.40 month
  progression-free survival (PFS, month) P75: 8.30 month
[5]; age ≤ 60
  progression-free survival (PFS, month) Mean: 4.48 month
  progression-free survival (PFS, month) P25: 2.77 month
  progression-free survival (PFS, month) P50: 4.30 month
  progression-free survival (PFS, month) P75: 6.17 month
[5]; patients with non-small cell lung cancer
  effect on progression-free survival versus placebo: significantly prolong progression-free survival
[6]; 12 mg once daily orally
  tolerance: well tolerated
[6]; [9]
  reduction of sum of the longest diameter: 43.1%
  sum of the longest diameter of the two measurable lesions: 26 mm
[6]; after treatment for 6 weeks
  reduction of sum of the longest diameter: 31.22%
[6]; after treatment for 6 weeks, 12 mg once daily orally
  sum of the longest diameter of the two measurable lesions: 31.43 mm
[6]; during treatment
  blood routine examinations including the number of blood cells: not significantly altered

From patent publication US10307412B2, “Quinoline derivative against non-small cell lung cancer” (CHIA TAI TIANQING PHARMACEUTICAL GROUP CO., LTD., priority 2014, dated 2019)
